From patent US20230304010A1, “COMPOSITIONS AND METHODS FOR TREATING VIRAL INFECTIONS” (priority 2020, published 2023) come the findings set out here.

Data set [1] concerns ACE2 : SARS-CoV-2 Spike Epsilon (B1429) variant. Format: binding.
In data set [2] the test system is ACE2 : SARS-CoV-2 Spike Gamma (P1/Brazil) variant. It counts as binding.
Data set [3] relates to ACE2 : SARS-CoV-2 Spike Delta (B1 617 2/India) variant. Format: binding. The conditions noted are these: read-out: IC50, Delta (B1617).
In data set [4] the test system is ACE2 : SARS-CoV-2 Spike Beta (B1.351/South Africa) variant. It counts as binding. The conditions noted are these: read-out: IC50, Beta (B1312).
For data set [5], the system named is SARS-CoV-2 variants (Alpha/Beta/Delta). It counts as cell-based.
Data set [6] has as its system ACE2 : SARS-CoV-2 Spike Alpha (B1.1.7/United Kingdom) variant. Format: binding. The conditions noted are these: read-out: IC50, Alpha (B117).

Read-outs that look alike come from different tables or passages of the source.

As to `CC(=O)N[C@@H](CCC(=O)O)C(=O)N[C@@H](CCC(N)=O)C(=O)N[C@@H](C)C(=O)N[C@@H](CCCCN)C(=O)N[C@H](C(=O)N[C@@H](Cc1ccccc1)C(=O)N[C@@H](CC(C)C)C(=O)N[C@@H](CC(=O)O)C(=O)N[C@@H](CCCCN)C(=O)N[C@@H](Cc1ccccc1)C(=O)N[C@@H](CC(N)=O)C(=O)N[C@@H](Cc1c[nH]cn1)C(=O)N[C@@H](CCC(=O)O)C(=O)N[C@@H](C)C(=O)N[C@@H](CCC(=O)O)C(=O)N[C@@H](CC(=O)O)C(=O)N[C@@H](CC(C)C)C(=O)N[C@@H](Cc1ccccc1)C(=O)NCCCCCC(=O)N[C@@H](CC(C)C)C(=O)N[C@@H](Cc1c[nH]c2ccccc12)C(=O)N[C@@H](CCCNC(=N)N)C(=O)N[C@@H](C)C(=O)N[C@@H](CC(C)C)C(=O)N[C@@H](Cc1c[nH]c2ccccc12)C(=O)N[C@@H](CCCNC(=N)N)C(=O)N[C@@H](CC(C)C)C(=O)N[C@@H](Cc1c[nH]c2ccccc12)C(=O)N[C@@H](CCCNC(=N)N)C(=O)N[C@@H](CO)C(=O)N[C@@H](CC(C)C)C(=O)N[C@@H](Cc1c[nH]c2ccccc12)C(=O)N[C@@H](CCCNC(=N)N)C(=O)N[C@@H](CC(C)C)C(=O)N[C@@H](CC(C)C)C(=O)N[C@@H](Cc1c[nH]c2ccccc12)C(=O)N[C@@H](CCCCN)C(N)=O)[C@@H](C)O` [Seq33], the IC50 in [1] came to 31.4 ± 9 nM; in [2] it was 20.2 ± 5 nM; in data set [3] it was 25.7 ± 8 nM; in data set [4], 28.8 ± 10 nM; in data set [6], 17.8 ± 9 nM. Also, in data set [5], the “fold stronger anti-SARS-CoV-2 activity than Remdesivir” value came to 200 fold.

For the compound “GGCCAAACTGTCACTAAGAAA (chemistry not given here) [DIVC-6]”, the IC50 in the data set with SARS-CoV-2 Alpha variant (read-out: Alpha (B117) IC50) amounted to 84.5 nM; in the data set on SARS-CoV-2 Beta variant (read-out: Beta (B1312) IC50) it was 58.5 nM; with SARS-CoV-2 Delta variant (read-out: Delta (B1617) IC50), 91.3 nM. Besides, the “inhibitory activity against all SARS-CoV2 variant viruses” value in data set [5] is recorded as “potent inhibitory activity”.

Regarding “Ac-N*GVEGFNK*Ava-LWRALWRLWRSLWRLLWK-NH2 [Seq17]”, the IC50 in data set [1] was 94.7 ± 17 nM; in data set [2], 87.2 ± 20 nM; with SARS-CoV-2 Alpha variant (read-out: Alpha (B117) IC50), 125 ± 24 nM; in the data set on SARS-CoV-2 Alpha variant (read-out: IC50, Alpha (B117)) it was 125 ± 24 nM; in data set [3] it was 48.2 ± 11 nM; in data set [4], 75.2 ± 21 nM. Moreover, the IC50 in the data set with SARS-CoV-2 Beta variant (read-out: Beta (B1312) IC50) was found to be 118 ± 15 nM; in the data set with SARS-CoV-2 Beta variant (read-out: IC50, Beta (B1312)), 118 ± 15 nM; in the data set with SARS-CoV-2 Delta variant (read-out: Delta (B1617) IC50), 25.7 ± 10 nM; in the data set on SARS-CoV-2 Delta variant (read-out: IC50, Delta (B1617)), 25.7 ± 10 nM; in [6], 136 ± 21 nM.
